By IC50 is commonly meant the point on the concentration scale where inhibition reaches its midpoint.

SMILES strings stand for the structures.

This assay concerns HT-29 cells. Briefly: Cell-based necroptosis assay for RIPK1 activity (cell viability, CCK-8). As to conditions: HT29 (human colon cancer), Z-VAD-FMK 20 μM, human TNFα 10 ng/ml, SM-164 100 nM, 24 h, read-out: Necroptosis inhibition (IC50). On the procedure:
Human colon carcinoma cell HT-29 (KCLB 30038), BV2 mouse microglial cell (cell was a kind gift from Dr. Nak-Yun Sung, Senior researcher at Korea Prime Pharmacy CO., LTD.) and human microglial cell HMC3 (ATCC® CRL-3304™). HT-29 cell was grown in Roswell Park Memorial Institute (RPMI) 1640, BV2 cell was grown in Dulbecco's Modified Eagle's Medium (DMEM) and HMC3 cell was grown in Minimum Essential Media Eagle (MEM) supplemented with 10% fetal bovine serum and 1% mixture of penicillin and streptomycin (Gibco). Cells were maintained at 37° C. in a humidified 5% CO2 atmosphere.
To measure the activity of RIPK1 inhibitor in necroptotic cells, HT-29 cells were treated by control DMSO, human TNFα (Peprotech, Rocky Hill, USA), SM-164 (Biovision, California, USA) and a pan-caspase inhibitor Z-VAD-FMK (Invivogen, San Diego, USA). Cells were pretreated with Z-VAD-FMK 20 μM. After 30 min, human TNFα 10 ng/ml, SM-164 100 nM and RIPK1 Inhibitor (0.0001, 0.001, 0.01, 0.02, 0.05, 0.1, 1, 10 uM) were treated for 24 h. Cell viability was measured by Cell Counting Kit 8 (CCK-8) (Dong-in, Seoul, Korea).

In the case of `CN1C(=O)[C@@H](NC(=O)n2cc(Cc3ccc(F)cc3)cn2)COc2ccccc21` [Example 8, (S)-4-(4-fluorobenzyl)-N-(5-methyl-4-oxo-2,3,4,5-tetrahydrobenzo[b][1,4]oxazepin-3-yl)-1H-pyrazole-1-carboxamide], the concentration for half-maximal inhibition (IC50) was below 100 nM. To `O=C1Nc2c(F)cccc2OC[C@@H]1NC(=O)n1cc(Cc2ccccc2)cn1` [Example 10, (S)-4-benzyl-N-(6-fluoro-4-oxo-2,3,4,5-tetrahydrobenzo[b][1,4]oxazepin-3-yl)-1H-pyrazole-1-carboxamide] belongs below 100 nM; to `CN1C(=O)[C@@H](NC(=O)n2cc(Cc3ccccc3)cn2)COc2cccc(F)c21` [Example 12, (S)-4-benzyl-N-(6-fluoro-5-methyl-4-oxo-2,3,4,5-tetrahydrobenzo[b][1,4]oxazepin-3-yl)-1H-pyrazole-1-carboxamide], below 10 nM. Regarding `CN1C(=O)[C@@H](NC(=O)n2cc(Cc3cccc(F)c3)cn2)COc2ccncc21` [Example 23, (S)-4-(3-fluorobenzyl)-N-(5-methyl-4-oxo-2,3,4,5-tetrahydropyrido[4,3-b][1,4]oxazepin-3-yl)-1H-pyrazole-1-carboxamide], the IC50 was below 10 nM. Next, `CN1C(=O)[C@@H](NC(=O)n2cc(Cc3cccc(F)c3)cn2)COc2ccccc21` [Example 3, (S)-4-(3-fluorobenzyl)-N-(5-methyl-4-oxo-2,3,4,5-tetrahydrobenzo[b][1,4]oxazepin-3-yl)-4-1H-pyrazole-1-carboxamide]: below 10 nM; `Cc1cccc(Cc2cnn(C(=O)N[C@H]3COc4ccccc4N(C)C3=O)c2)c1` [Example 5, (S)—N-(5-methyl-4-oxo-2,3,4,5-tetrahydrobenzo[b][1,4]oxazepin-3-yl)-4-(3-methylbenzyl)-1H-pyrazole-1-carboxamide]: below 10 nM. `O=C1Nc2nccnc2CCC1NC(=O)n1cc(Cc2cccc(F)c2)cn1` (stereo not drawn) [Example 30, 4-(3-fluorobenzyl)-N-(6-oxo-6,7,8,9-tetrahydro-5H-pyrazino[2,3-b]azepin-7-yl)-1H-pyrazole-1-carboxamide]: the IC50 was above 100 nM. `Cc1cc2c(cn1)N(C)C(=O)[C@@H](NC(=O)n1cc(Cc3ccccc3)cn1)CO2` [Example 37, (S)-4-benzyl-N-(5,8-dimethyl-4-oxo-2,3,4,5-tetrahydropyrido[4,3-b][1,4]oxazepin-3-yl)-1H-pyrazole-1-carboxamide]: the half-inhibitory concentration (IC50) is below 10 nM. `CN1C(=O)[C@@H](NC(=O)n2cc(Cc3cccc(F)c3)cn2)COc2cc(F)cc(F)c21` [Example 17, (S)—N-(6,8-difluoro-5-methyl-4-oxo-2,3,4,5-tetrahydrobenzo[b][1,4]oxazepin-3-yl)-4-(3-fluorobenzyl)-1H-pyrazole-1-carboxamide]: the half-maximal inhibitory concentration (IC50) was below 10 nM. To `CN1C(=O)[C@@H](NC(=O)n2cc(Cc3ccc(C#N)cc3)cn2)COc2ccccc21` [Example 9, (S)-4-(4-cyanobenzyl)-N-(5-methyl-4-oxo-2,3,4,5-tetrahydrobenzo[b][1,4]oxazepin-3-yl)-1H-pyrazole-1-carboxamide] belongs below 100 nM. On to `CN1C(=O)[C@@H](NC(=O)n2cc(Cc3ccccc3)cn2)COc2cc(F)ncc21` [Example 34, (S)-4-benzyl-N-(8-fluoro-5-methyl-4-oxo-2,3,4,5-tetrahydropyrido[4,3-b][1,4]oxazepin-3-yl)-1H-pyrazole-1-carboxamide], for which the IC50 was below 10 nM. Turning to `CN1C(=O)[C@@H](NC(=O)n2cc(Cc3ccccc3)cn2)COc2cc(F)cc(F)c21` [Example 16, (S)-4-benzyl-N-(6,8-difluoro-5-methyl-4-oxo-2,3,4,5-tetrahydrobenzo[b][1,4]oxazepin-3-yl)-1H-pyrazole-1-carboxamide], the half-inhibitory concentration (IC50) was below 10 nM. Take `CN1C(=O)[C@@H](NC(=O)n2cc(Cc3cccc(F)c3)cn2)COc2cccnc21` [Example 21, (S)-4-(3-fluorobenzyl)-N-(5-methyl-4-oxo-2,3,4,5-tetrahydropyrido[3,2-b][1,4]oxazepin-3-yl)-1H-pyrazole-1-carboxamide]: the IC50 was below 10 nM.

For the molecule `O=C1Nc2ccccc2OC[C@@H]1NC(=O)n1cc(Cc2cccc(F)c2)cn1` [Example 2, (S)-4-(3-fluorobenzyl)-N-(4-oxo-2,3,4,5-tetrahydrobenzo[b][1,4]oxazepin-3-yl)-11H-pyrazole-1-carboxamide], the half-inhibitory concentration (IC50) is below 100 nM. Next, `CN1C(=O)[C@@H](NC(=O)n2cc(Cc3cccc(C#N)c3)cn2)COc2ccccc21` [Example 7, (S)-4-(3-cyanobenzyl)-N-(5-methyl-4-oxo-2,3,4,5-tetrahydrobenzo[b][1,4]oxazepin-3-yl)-1H-pyrazole-1-carboxamide]: below 10 nM.

As to `CN1C(=O)[C@@H](NC(=O)n2cc(Cc3cccc(F)c3)cn2)COc2cc(F)ncc21` [Example 35, (S)—N-(8-fluoro-5-methyl-4-oxo-2,3,4,5-tetrahydropyrido[4,3-b][1,4]oxazepin-3-yl)-4-(3-fluorobenzyl)-1H-pyrazole-1-carboxamide], the IC50 is below 10 nM.

On to `COc1ccc2c(c1)OC[C@H](NC(=O)n1cc(Cc3ccccc3)cn1)C(=O)N2C` [Example 18, (S)-4-benzyl-N-(8-methoxy-5-methyl-4-oxo-2,3,4,5-tetrahydrobenzo[b][1,4]oxazepin-3-yl)-1H-pyrazole-1-carboxamide], for which the IC50 was below 10 nM.

As for `CN1C(=O)[C@@H](NC(=O)n2cc(Cc3ccccc3)cn2)COc2ccnc(F)c21` [Example 32, (S)-4-benzyl-N-(6-fluoro-5-methyl-4-oxo-2,3,4,5-tetrahydropyrido[4,3-b][1,4]oxazepin-3-yl)-1H-pyrazole-1-carboxamide], the half-inhibitory concentration (IC50) was below 10 nM.

`CN1C(=O)[C@@H](NC(=O)n2cc(Cc3cccc(F)c3)cn2)COc2cccc(F)c21` [Example 13, (S)—N-(6-fluoro-5-methyl-4-oxo-2,3,4,5-tetrahydrobenzo[b][1,4]oxazepin-3-yl)-4-(3-fluorobenzyl)-1H-pyrazole-1-carboxamide]: the half-maximal inhibitory concentration (IC50) was below 10 nM. In the case of `O=C1Nc2ccccc2OC[C@@H]1NC(=O)n1cc(Cc2ccccc2)cn1` [Example 1, (S)-4-benzyl-N-(4-oxo-2,3,4,5-tetrahydrobenzo[b][1,4]oxazepin-3-yl)-1H-pyrazole-1-carboxamide], the half-maximal inhibitory concentration (IC50) was below 100 nM. Turning to `CN1C(=O)[C@@H](NC(=O)n2cc(Cc3ccccc3)cn2)COc2cc(Cl)ncc21` [Example 36, (S)-4-benzyl-N-(8-chloro-5-methyl-4-oxo-2,3,4,5-tetrahydropyrido[4,3-b][1,4]oxazepin-3-yl)-1H-pyrazole-1-carboxamide], the IC50 was below 10 nM. `CN1C(=O)C(NC(=O)n2cc(Cc3ccccc3)cn2)CCc2cc(F)cc(F)c21` (stereo not drawn) [Example 27, 4-benzyl-N-(7,9-difluoro-1-methyl-2-oxo-2,3,4,5-tetrahydro-1H-benzo[b]azepin-3-yl)-1H-pyrazole-1-carboxamide]: the IC50 was below 10 nM. On to `O=C1Nc2c(F)cc(F)cc2OC[C@@H]1NC(=O)n1cc(Cc2cccc(F)c2)cn1` [Example 15, (S)—N-(6,8-difluoro-4-oxo-2,3,4,5-tetrahydrobenzo[b][1,4]oxazepin-3-yl)-4-(3-fluorobenzyl)-1H-pyrazole-1-carboxamide], for which the half-maximal inhibitory concentration (IC50) was above 100 nM.

As for `O=C1Nc2c(F)cc(F)cc2CCC1NC(=O)n1cc(Cc2ccccc2)cn1` (stereo not drawn) [Example 25, 4-benzyl-N-(7,9-difluoro-2-oxo-2,3,4,5-tetrahydro-1H-benzo[b]azepin-3-yl)-1H-pyrazole-1-carboxamide], the IC50 is below 100 nM. For `CN1C(=O)[C@@H](NC(=O)n2cc(Cc3cccc(Cl)c3)cn2)COc2ccccc21` [Example 4, (S)-4-(3-chlorobenzyl)-N-(5-methyl-4-oxo-2,3,4,5-tetrahydrobenzo[b][1,4]oxazepin-3-yl)-1H-pyrazole-1-carboxamide], the IC50 is below 10 nM. Regarding `COc1ccc2c(c1)N(C)C(=O)[C@@H](NC(=O)n1cc(Cc3ccccc3)cn1)CO2` [Example 19, (S)-4-benzyl-N-(7-methoxy-5-methyl-4-oxo-2,3,4,5-tetrahydrobenzo[b][1,4]oxazepin-3-yl)-1H-pyrazole-1-carboxamide], the IC50 was below 10 nM. Consider `O=C1Nc2nccnc2CCC1NC(=O)n1cc(Cc2ccccc2)cn1` (stereo not drawn) [Example 29, 4-benzyl-N-(6-oxo-6,7,8,9-tetrahydro-5H-pyrazino[2,3-b]azepin-7-yl)-1H-pyrazole-1-carboxamide], for which the IC50 was above 100 nM. Turning to `O=C1Nc2c(F)cccc2OC[C@@H]1NC(=O)n1cc(Cc2cccc(F)c2)cn1` [Example 11, (S)—N-(6-fluoro-4-oxo-2,3,4,5-tetrahydrobenzo[b][1,4]oxazepin-3-yl)-4-(3-fluorobenzyl)-1H-pyrazole-1 carboxamide], the IC50 is below 100 nM. For the molecule `CN1C(=O)[C@@H](NC(=O)n2cc(Cc3ccccc3)cn2)COc2ccncc21` [Example 22, (S)-4-benzyl-N-(5-methyl-4-oxo-2,3,4,5-tetrahydropyrido[4,3-b][1,4]oxazepin-3-yl)-1H-pyrazole-1-carboxamide], the concentration for half-maximal inhibition (IC50) is below 10 nM. In the case of `COc1ccc2c(c1)N(C)C(=O)[C@@H](NC(=O)n1cc(Cc3cccc(F)c3)cn1)CO2` [Example 20, (S)-4-(3-fluorobenzyl)-N-(7-methoxy-5-methyl-4-oxo-2,3,4,5-tetrahydrobenzo[b][1,4]oxazepin-3-yl)-1H-pyrazole-1-carboxamide], the half-maximal inhibitory concentration (IC50) is below 10 nM.
